Data on one compound can be found in patent US20230038883A1, “SPECIFIC HOST FACTOR OF HEPATITIS B VIRUS INFECTION, AND USE THEREOF” (priority 2020, published 2023).

The test concerns the target T1, SCARF2 EGF4-6 proteins (Homo sapiens, UniProt Q96GP6).
T1 construct: Precision (protease site) tag (internal); human Fc tag (IgG1) (C); made in house; host or cells: 293F cells (pCAGGs vector), purified with Protein A beads
T1 sequence (Q96GP6 183-270): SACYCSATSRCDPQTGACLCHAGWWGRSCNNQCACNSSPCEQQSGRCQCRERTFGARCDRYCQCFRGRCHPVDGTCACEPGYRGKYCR
The experiment in a line: immunoprecipitation of biotin labeled preS1 polypeptides with SCARF2 EGF4-6. Type of test: binding. From the text: Compared with SVPs, the virus particles were rich in L protein, and the main functional segment of L protein was the preS1 segment; it was therefore speculated that the SCARF2 EGF4-6 proteins interact with the preS1 segment of the L protein of the virus. […] The C-terminus of each of the synthesized peptides was biotin labeled.

In the case of `CC[C@H](C)[C@H](NC(=O)CNC(=O)[C@H](CCC(N)=O)NC(=O)[C@H](C)NC(=O)[C@@H](N)CCC(N)=O)C(=O)N[C@@H](CC(C)C)C(=O)N[C@@H](CCC(N)=O)C(=O)N[C@H](C(=O)N[C@@H](CC(C)C)C(=O)N1CCC[C@H]1C(=O)N[C@@H](C)C(=O)N[C@@H](CC(N)=O)C(=O)N1CCC[C@H]1C(=O)N1CCC[C@H]1C(=O)N1CCC[C@H]1C(=O)N[C@@H](C)C(=O)N[C@@H](CO)C(=O)N[C@H](C(=O)N[C@@H](CC(N)=O)C(=O)N[C@@H](CCCNC(=N)N)C(=O)N[C@@H](CCC(N)=O)C(=O)N[C@@H](CO)C(=O)NCC(=O)N[C@@H](CCCNC(=N)N)C(=O)N[C@@H](CCC(N)=O)C(=O)N1CCC[C@H]1C(=O)N[C@H](C(=O)N1CCC[C@H]1C(=O)N[C@@H](CC(C)C)C(=O)N[C@@H](CO)C(=O)N1CCC[C@H]1C(=O)N1CCC[C@H]1C(=O)N[C@@H](CC(C)C)C(=O)N[C@@H](CCCNC(=N)N)C(=O)N[C@@H](CC(N)=O)C(=O)N[C@H](C(=O)N[C@@H](Cc1c[nH]cn1)C(=O)N1CCC[C@H]1C(=O)N[C@@H](CCC(N)=O)C(=O)N[C@@H](C)C(=O)O)[C@@H](C)O)[C@@H](C)O)[C@@H](C)O)[C@@H](C)O` [peptide^69-108], the “binding to SCARF2 EGF4-6 proteins” value is “specifically bound”.
